The values that follow come from patent publication US8337828B2, “Use of thymosin alpha 1, alone or in combination with PTX3 or ganciclovir, for the treatment of cytomegalovirus infection” (priority 2006, dated 2012).

Ends that are not written are not given here.

For one assay, the system named is CD11b+DC or pDC. Kind of assay: Cytokine production by MCMV-pulsed DC subsets (ELISA). As to conditions: MCMV-infected. Type of assay: cell-based, BALB/c mice. The text has this:
Arrow indicates an inducible band. Lane 1, uninfected cells; lane 2, MCMV-infected; lane 3, Thymosin alpha 1 treated; lane 4, MCMV+Thymosin alpha 1 treated. (FIG. 3b) Cytokine production (pg/ml) by DC subsets treated as above. Bars indicate the standard errors. *P<0.05, cytokine production in MCMV-infected DC vs uninfected DC. **P<0.05, Thymosin alpha 1-treated vs untreated DC. (FIG. 3c) Cytokine production in mice during MCMV infection. Cytokine levels (pg/ml) in culture supernatants of spleen cells from mice with MCMV infection and treated for a week with Thymosin alpha 1 or GCV. *P<0.05, treated vs untreated mice. ND, not done.
DC subset generation. DC were obtained by culturing 10^6/ml BALB/c bone marrow cells in Iscove's modified medium, containing 10% filtered bovine serum, 50 μM 2-mercaptoethanol, sodium pyruvate (1 mM), 2 mM L-glutamine, HEPES (10 mM), and 50 μg/ml gentamycin in the presence of 150 U/ml mouse rGM-CSF (Sigma) and 75 U/ml rIL-4 (R&D Systems) for 7 days to obtain CD11b+DC or 200 ng/ml FLT3-L (Immunex Corporation, Seattle, Wash.) for 9 days to obtain pDC. Final maturation was accomplished by the addition of 1 μg/ml LPS or 2 μg/ml cytosine phosphorothioate-guanine oligodeoxynucleotide (CpG-B ODN 1668) (Coley Pharmaceutical Group, Wellesley, Mass.) for additional 24 h to CD11b+DC or pDC, respectively (Blood 2003; 102: 3807-344; 3814) CD11b+DC were discriminated on CD11chigh expression and were distinctly composed of CD8a+DC and CD11b+DC. pDC were defined as CD11clow, Ly6C+, CD8a+/− cells. Photographs were taken using a high Resolution Microscopy Color Camera AxioCam, using the AxioVision Software Rel. […]
Quantification of cytokines by ELISA and ELISPOT assays. The levels of cytokines in the culture supernatants of mitogen-stimulated spleen cells (48 h stimulation with 10 μg/ml ConA) or MCMV-pulsed DC (24 h) were determined by ELISA (R&D Systems and PBL, Biomedical Lab, Milan, Italy). […] Results are expressed as the mean number of cytokine-producing cells (±SE) per 10^5 cells, calculated using replicates of serial 2-fold dilutions of cells.

For assay [1], the system named is methylcholanthrene-induced fibrosarcoma. To be noted: mouse, in vivo; cited from earlier work.

Take “Ac-Ser-Asp-Ala-Ala-Val-Asp-Thr-Ser-Ser-Glu -Ile-Thr-Thr-Lys-Asp-Leu-Lys-Glu-Lys-Lys-Glu-Val-Glu-Glu-Ala-Glu-Asn-O (Ac-SDAAVDTSSEITTKDLKEKKEVEEAEN) [Thymosin alpha 1, acidic peptide present in thymus extract with immunoregulatory properties]”: the “production of IFN-a” value with CD11b+DC or pDC (CD11b+DC) is recorded as “slightly promoted”; with CD11b+DC or pDC (pDC pre-treated), “greatly increased”. Besides, the “production of IL-12p70” value with CD11b+DC or pDC (pDC pre-treated) is given as “not affecting”. Moreover, in assay [1], the pulmonary metastases result was “reduced”.
